According to patent US20240262795A1, “PYRAZINE COMPOUNDS AS INHIBITORS OF FLT3” (Biomea Fusion, Inc., priority 2021, published 2024):
Numbering of substitutions follows the chain as printed.

Key:
[1] = molecular target: T1, Ba/F3 cell lines stably expressing human FLT3-ITD-D835Y (Homo sapiens, UniProt P36888, D835Y, cells depend on it, form not given); test: FLT3 mutant assay, cell viability, Ba/F3-FLT3-ITD-D835Y; format: cell-based, mouse; settings: IC50 (3 days), CellTiter-Glo; read-out: Ba/F3-FLT3-ITD-D835Y Relative IC50
T1 construct: Ba/F3-FLT3-ITD-D835Y Relative IC50
T1 sequence (P36888 1-993 D835Y): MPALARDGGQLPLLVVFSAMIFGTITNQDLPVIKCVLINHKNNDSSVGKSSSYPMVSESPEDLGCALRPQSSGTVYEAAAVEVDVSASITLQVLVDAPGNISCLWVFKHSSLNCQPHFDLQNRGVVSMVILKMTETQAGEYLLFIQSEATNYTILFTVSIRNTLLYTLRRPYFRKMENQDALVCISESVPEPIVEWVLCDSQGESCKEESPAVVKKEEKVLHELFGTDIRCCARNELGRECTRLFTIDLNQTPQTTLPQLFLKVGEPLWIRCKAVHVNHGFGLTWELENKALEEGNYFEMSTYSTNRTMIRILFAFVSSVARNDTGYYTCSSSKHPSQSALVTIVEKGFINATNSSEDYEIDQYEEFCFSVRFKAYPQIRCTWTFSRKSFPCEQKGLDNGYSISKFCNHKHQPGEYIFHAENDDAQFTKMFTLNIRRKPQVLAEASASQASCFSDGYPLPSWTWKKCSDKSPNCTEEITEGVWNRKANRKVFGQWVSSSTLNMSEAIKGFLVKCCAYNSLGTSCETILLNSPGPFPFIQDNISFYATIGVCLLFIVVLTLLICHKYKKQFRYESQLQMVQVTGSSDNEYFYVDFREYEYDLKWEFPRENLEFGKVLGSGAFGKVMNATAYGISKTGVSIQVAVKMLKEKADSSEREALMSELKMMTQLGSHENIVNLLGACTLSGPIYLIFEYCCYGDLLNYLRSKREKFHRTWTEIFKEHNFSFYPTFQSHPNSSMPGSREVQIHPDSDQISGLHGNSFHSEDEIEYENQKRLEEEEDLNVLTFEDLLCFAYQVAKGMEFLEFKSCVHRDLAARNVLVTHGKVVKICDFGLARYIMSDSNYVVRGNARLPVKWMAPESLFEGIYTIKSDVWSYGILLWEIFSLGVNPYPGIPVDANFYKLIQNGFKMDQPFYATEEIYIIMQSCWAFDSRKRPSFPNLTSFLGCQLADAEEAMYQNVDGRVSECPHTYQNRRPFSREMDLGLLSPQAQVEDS
Protocol: (§1) Activity of compounds on FLT3 activating mutations were assessed using Ba/F3 cell lines (mouse pro-B cell line) stably expressing human FLT3-ITD, FLT3-ITD-D835Y or FLT3-ITD-F691L. […] The supernatant collected were concentrated with PEG8000 and used to infect Ba/F3 cells at 1-5 MOI in serum-free media with polybrene. Infected Ba/F3 cells were selected in presence of puromycin, and surviving cells verified by sequencing and/or protein detection assay. Constitutive expression of the activating kinase transforms the Ba/F3 cells into IL-3-independent growth allowing them to be cultured in the absence of IL-3. […] For use in compound testing, cells in exponential growth phase were harvested, counted, and resuspended at the required cell density. Cell viability assays were performed in 96-well assay plates and 90 μL of cell suspension seeded per well. Serial dilutions of the test compounds and assay controls and were freshly prepared for the assay. Nine-point 3× serial dilutions were prepared in 100% DMSO (400× stock) and subsequently diluted in cell culture media to obtain 10× stocks. Ten microliters of the 10× stock serial dilutions were added to the appropriate wells (triplicate wells per condition) in the assay plate. […] Assay plates were incubated for 3 days in at 37° C. in a humidified incubator with 5% CO2.
(§2) Inhibition rate (IR) of the tested compounds was determined by the following formula: IR (%)=(1−(RLU compound−RLU blank)/(RLU control−RLU blank))*100%. The inhibitions of different dose of compound were calculated in Excel file, and the dose responses were analysed using GraphPad Prism to evaluate related parameters, such as Bottom, Top and IC50. For the IC50 analysis by GraphPad Prism, the equation below was used to fit curve: Y=Bottom+(Top−Bottom)/(1+10^((LogIC50−X)*HillSlope))

[2] = molecular target: T2, Ba/F3 cell lines stably expressing human FLT3-ITD-F691L (Homo sapiens, UniProt P36888, F691L, cells depend on it, form not given); test: FLT3 mutant assay, cell viability, Ba/F3-FLT3-ITD-F691L; format: cell-based, mouse; settings: IC50 (3 days), CellTiter-Glo; read-out: Ba/F3-FLT3-ITD-F691L Relative IC50
T2 construct: Ba/F3-FLT3-ITD-F691L Relative IC50
T2 sequence (P36888 1-993 F691L): T1 sequence (P36888 1-993 D835Y) with F691L, Y835D
Protocol: as §1, §2

| Structure (SMILES) | GI50 [1] [nM] | GI50 [2] [nM] |
| --- | --- | --- |
| CCc1nc(C(N)=O)c(Nc2cccc([C@@H](C)CNC(=O)CN(C)C(=O)/C=C/CN3CCC3)c2)nc1N(C)CC [Compound 518, (R,E)-3-((3-(1-(2-(4-(azetidin-1-yl)-N-methylbut-2-enamido)acetamido)propan-2-yl)phenyl)amino)-6-ethyl-5-(ethyl(methyl)amino)pyrazine-2-carboxamide] | 10 to 100 | 1 to 10 |
| CCOc1nc(Nc2cccc(CCNC(=O)CN(C)C(=O)/C=C/CN3CCC3)c2)c(C(N)=O)nc1CC [Compound 602, (E)-3-((3-(2-(2-(4-(azetidin-1-yl)-N-methylbut-2-enamido)acetamido)ethyl)phenyl)amino)-5-ethoxy-6-ethylpyrazine-2-carboxamide] | 10 to 100 | 1 to 10 |
| CCc1nc(C(N)=O)c(Nc2cccc(CCNC(=O)CN(C)C(=O)/C=C/CN3CCC3)c2)nc1OC(C)C [Compound 603, (E)-3-((3-(2-(2-(4-(azetidin-1-yl)-N-methylbut-2-enamido)acetamido)ethyl)phenyl)amino)-6-ethyl-5-isopropoxypyrazine-2-carboxamide] | 10 to 100 | 10 to 100 |
| CCc1nc(C(N)=O)c(Nc2ccnc(CCNC(=O)[C@H](C)N(C)C(=O)/C=C/CN(C)C)c2)nc1N(C)C(C)C [Compound 605, (S, E)-3-((2-(2-(2-(4-(dimethylamino)-N-methylbut-2-enamido)propanamido)ethyl)pyridin-4-yl)amino)-6-ethyl-5-(isopropyl (methyl)amino) pyrazine-2-carboxamide] | 10 to 100 | 10 to 100 |
| CCc1nc(C(N)=O)c(Nc2ccc(N3CCC(N4CCN(C)CC4)CC3)c(OC)c2)nc1NC1CCOCC1 [Gilteritinib, gilteritinib, reference compound] | 10 to 100 | 10 to 100 |
